Calls of active or inactive are those of the source. The calls are words filed in the database; no cut-off is given here.
Experiments:
[1] = test system: PC-12; experiment: Neuroprotective activity against rat PC12 cells under glucose and oxygen-deprived condition assessed as increase in cell viability at 1 uM relative to control; type: functional, cell-based
[2] = test system: SIM-A9; experiment: Neuroprotective activity against LPS-induced mouse SIM-A9 cells assessed as increase in cell viability at 1 uM relative to control; type: functional, cell-based
[3] = test system: PC-12; experiment: […] activity in rat PC12 cells assessed as reduction in TCN-induced ER stress by measuring increase in cell viability at 1 uM relative to control; type: functional, cell-based
[4] = test system: SIM-A9; experiment: Antiinflammatory activity in mouse microglial SIM-A9 cells assessed as reduction in LPS-stimulated nitric oxide release at 1 uM relative to control; type: functional, cell-based
[5] = test system: PC-12; experiment: Neuroprotective activity against rat PC12 cells under glucose and oxygen-deprived condition assessed as fold increase in cell viability at 1 uM relative to DPZ; type: functional
[6] = test system: PC-12; experiment: Neuroprotective activity against rat PC12 cells under glucose and oxygen-deprived condition assessed as increase in cell viability at 0.1 uM relative to control; type: functional, cell-based

SMILES | Activity [1] | Activity [2] | Activity [3] | Activity [4] | fold change (FC) [5] | Activity [6]
COCc1c[nH]c2cccc(/C=C/C(=O)OC)c12 | Active | Active | Active | Active | 10 | 
CN(C)Cc1c[nH]c2cccc(/C=C/C(N)=O)c12 | Active | Active | Active | Active | 10 | 
COC(=O)/C=C/c1cccc2[nH]cc(CN(C)C)c12 | Active | Active | Active | Active | 10 | 
O=[N+]([O-])C(Cc1c[nH]c2cccc(Br)c12)Cc1c[nH]c2cccc(Br)c12 | Active | inactive | inactive |  | 10 | 
COc1cc2c(cc1OC)C(=O)C(CC1CCN(Cc3ccccc3)CC1)C2 (stereo unspecified) | Active | Active | Active | Active |  | Active
CN(C)Cc1c[nH]c2cccc(Br)c12 | Active |  | Active | Active | 10 | 
COC(=O)C[C@H]1c2cccc3[nH]cc(c23)C[C@@H]1[N+](=O)[O-] | Active |  | Active |  | 10 | 
